Measurements published in patent US20210040134A1, “COMBINATIONS OF MACROLIDE COMPOUNDS AND IMMUNE CHECKPOINT INHIBITORS” (ISR IMMUNE SYSTEM REGULATION HOLDING AB (PUBL), priority 2018, published 2021).

Key:
[1] = Caco-2 bidirectional permeability assay; format: in vitro ADME; details: human, Caco-2; B to A permeability divided by A to B permeability
Method: (§1) 10 μM Test article was added to the apical (A) surface of Caco-2 cell monolayers (in HBSS buffer with 0.3% DMSO and 5 μM LY at 37 degrees C.) and compound permeation into the basolateral (B) compartment measured following 90 minutes incubation. This was also performed in the reverse direction (basolateral to apical) to investigate active transport. LC-MS/MS is used to quantify levels of both the test and standard control compounds. Efflux ratio was calculated by dividing the B to A permeability by the A to B permeability.
(§2) Drug permeability:Papp=(VA/(Area×time))×([drug]accepter/(([drug]initial,donor)×Dilution Factor)
(§3) The permeability of the compounds of the invention was assessed in a standard caco-2 bidirectional permeability assay (see general methods).

[2] = test system: Caco-2 cell monolayers; experiment: Caco-2 bidirectional permeability assay; format: in vitro ADME; details: Caco-2, 10 μM test article, 90 minutes
Method: as §1, §2, §3

[3] = molecular target: T1, human TLR2 (Homo sapiens, UniProt O60603); experiment: TLR2 reporter assay (HEK-293-TLR, SEAP); format: cell-based; details: concentrations up to 20 uM
T1 construct: host or cells: recombinant HEK-293-TLR cell lines
T1 sequence (O60603 21-784): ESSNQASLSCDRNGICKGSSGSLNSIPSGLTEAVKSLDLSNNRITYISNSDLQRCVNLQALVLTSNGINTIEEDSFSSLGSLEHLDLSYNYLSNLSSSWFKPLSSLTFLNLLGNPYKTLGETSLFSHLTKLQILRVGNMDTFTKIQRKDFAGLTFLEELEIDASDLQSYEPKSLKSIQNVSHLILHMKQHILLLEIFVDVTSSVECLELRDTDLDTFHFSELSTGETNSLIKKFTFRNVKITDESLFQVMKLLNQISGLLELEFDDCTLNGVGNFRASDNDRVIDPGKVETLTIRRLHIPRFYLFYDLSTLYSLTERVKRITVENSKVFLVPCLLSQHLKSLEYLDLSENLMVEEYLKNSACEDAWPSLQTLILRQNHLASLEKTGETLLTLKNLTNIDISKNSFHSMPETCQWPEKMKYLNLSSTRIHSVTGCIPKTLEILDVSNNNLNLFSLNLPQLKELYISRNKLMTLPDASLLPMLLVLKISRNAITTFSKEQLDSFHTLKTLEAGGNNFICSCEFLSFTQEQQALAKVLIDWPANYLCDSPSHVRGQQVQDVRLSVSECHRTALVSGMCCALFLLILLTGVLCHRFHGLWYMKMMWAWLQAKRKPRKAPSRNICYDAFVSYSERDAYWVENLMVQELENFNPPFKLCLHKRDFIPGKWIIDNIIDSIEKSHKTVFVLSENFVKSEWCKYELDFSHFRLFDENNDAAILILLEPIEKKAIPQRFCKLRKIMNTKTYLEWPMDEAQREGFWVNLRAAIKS
Method: Samples and controls were tested in duplicate on recombinant HEK-293-TLR cell lines using a cell reporter assay at Invivogen using their standard assay conditions. These cell lines functionally over-express human TLR2 protein as well as a reporter gene which is a secreted alkaline phosphatase (SEAP). The production of this reporter gene is driven by an NFkB inducible promoter. The TLR reporter cell lines activation results are given as optical density values (OD).
20 μl of each test article were used to stimulate the hTLR2 reporter cell lines in a 200 μl of final reaction volume. Samples were tested in duplicate, with at least two concentrations tested—20 uM and 10 uM.
Compounds were tested using a TLR2 reporter assay (see general methods) that measured for stimulation of the TLR2 receptor. Stimulatory effect was measured as an increase in optical density (OD) due to release of secreted alkaline phosphatase (SEAP) and is shown in table 4: […]

Question: For `CC[C@H]1OC(=O)[C@H](C)[C@@H](O[C@H]2C[C@@H](N(C)C)[C@H](O)[C@@H](C)O2)[C@H](C)[C@@H](O)[C@](C)(O)C[C@@H](C)CN(C)[C@H](C)[C@@H](O)[C@]1(C)O` [Compound 1], which efflux ratio at 90 minutes, 10 μM [1] is on record?
Answer: 63

Question: And the Papp [2]?
Answer: 0.32 × 10^6/cm · s^−1

Question: And the “TLR2 stimulation (in words)” value [3]?
Answer: stimulated TLR2 at concentrations down to 5 uM
